Data: patent publication US12152048B2, “Nitroxoline prodrug and use thereof” (Jiangsu Yahong Meditech Co., Ltd., priority 2018, dated 2024)
In brackets after ≈: the same amount, converted by molar mass.

What was measured:
Stability in dog plasma = format: in vitro ADME
Description: (§1) Experimental instruments: thermostatic shaker (SHA-B, Guohua Electric Appliance Co., Ltd.); centrifuge (5810R, Eppendorf); mass spectrometry (AP4000, Applied Biosystems, USA); liquid chromatography (LC-30AD, Shimadzu); sample injector (CTC Analytics AG System, CTC).
(§2) Test animals: plasma of human (batch number: BRH1343165), rat (batch number: RAT336728), mouse (batch number: MSE280000), dog (batch number: BGL99137) and monkey (batch number: PH-Monkey-20180821) are purchased from Shanghai Sixin Biological Technology Co., Ltd.
(§3) Experimental process: the compound of the present invention was dissolved in an organic solvent to obtain a 1 mM working solution. 3 μL of the working solution were added to 597 μL of pre-incubated human or rat plasma and mixed well. 50 μL of the solution were immediately taken out as the 0 minute sample. The remaining sample was incubated at 37° C., and 50 μL of sample were taken out at 15, 30, 60 and 120 minutes respectively. All the samples taken out were immediately processed to precipitate protein, and centrifuged to obtain a supermate for the determination of the compound concentration by LC/MS/MS.

[1] = Stability in human liver microsome; details: 2 μM, 37° C., 30 minutes
[2] = Determination of water solubility in phosphate buffer; format: physicochemical; details: aqueous buffer, thermodynamic from solid; phosphate buffer pH 7.4, room temperature, 24 hours
Description: Experimental instruments: 96-well filter plate (MSHVN4510 or MSHVN4550, Millipore); electronic digital display vortex mixer (MS3 Digital, IKA); multi-purpose vacuum pump (circulating water type, SHB-111, Zhengzhou Greatwall Scientific Industrial and Trade Co., Ltd.); balance (XSLT05, Mettler-Toledo); comfortable mixer (Eppendorf AG 22331 Hamburg, Eppendorf); liquid chromatography (LC-3AD, Shimadzu); mass spectrometry (API4000, Applied Biosystems, USA); sample injector (Anylytics AG System, CTC). Nitroxoline was prepared according to the method disclosed in Journal of Heterocyclic Chemistry, 1971, vol. 8, p 821 by Wisdom Pharmaceutical Co., Ltd.
Experimental process: 500 μL of phosphate buffer (pH=1.2, 4.5, 6.8 or 7.4) were added to a glass flask, to which 2 mg of compound powder were added. The flask was sealed with a cap and shaked on a mixer (VORTEX-GENIE2) at room temperature for 24 hours. The solution was subjected to vacuum filtration, and the filtrate was processed to determine the compound concentration by LC/MS/MS.

[3] = Stability in plasma, overall conclusion (species not stated); details: conclusion in words
[4] = Stability in dog liver microsome; details: 2 μM, 37° C., 30 minutes
[5] = Stability in mouse liver microsome; format: in vitro ADME; details: 2 μM, 37° C., 30 minutes
[6] = Stability in rat liver microsome; details: 2 μM, 37° C., 30 minutes
Description: Experimental instruments: thermostatic shaker (SHA-B, Guohua Electric Appliance Co., Ltd.); centrifuge (5810R, Eppendorf); mass spectrometry (API4000, Applied Biosystems, USA); liquid chromatography (LC-30AD, Shimadzu); sample injector (CTC Analytics AG System, CTC).
Experimental process: 25 μg/mL alamethicin (Aldrich), 5 mM magnesium chloride and 0.5 mg/mL microsome (XENOTECH) were added to 100 mM phosphate buffer to obtain a coenzyme-free reaction solution. A portion of the coenzyme-free reaction solution was added with 1 mM reductive nicotinamide adenine dinucleotide phosphate (Aldrich) and 5 mM uridine diphosphate glucuronic acid (Aldrich) to obtain a coenzyme-containing reaction solution. The working solution of the compound of the present invention was added to the two reaction solutions so that the final concentration of the compound was 2 μM. Immediately after mixing well, 50 μL of the solution were taken out as the 0 minute sample, and 50 μL of the remaining sample were taken out after incubating at 37° C. for 30 minutes. All the samples taken out were immediately processed to precipitate protein, and centrifuged to obtain a supernate for the determination of the compound concentration by LC/MS/MS.

[7] = Stability in human plasma
Description: as §1, §2, §3

## CCC(NC(=O)OCOc1ccc([N+](=O)[O-])c2cccnc12)C(=O)OC (centres unmarked) [Compound 54, methyl 2-(((5-nitroquinolin-8-yloxy)methoxy)formamido)butanoate]
Stability in dog plasma; 0 minute
  Percentage of the compound remaining in plasma: 100.0%
Stability in dog plasma; 37° C., 15 minutes
  Percentage of the compound remaining in plasma: 100.3%
Stability in dog plasma; 37° C., 30 minutes
  Percentage of the compound remaining in plasma: 99.2%
Stability in dog plasma; 37° C., 60 minutes
  Percentage of the compound remaining in plasma: 92.4%
Stability in dog plasma; 37° C., 120 minutes
  Percentage of the compound remaining in plasma: 74.7%
[1]; with coenzyme
  Percentage of the compound remaining in human liver microsome: 31.49%
[1]; without coenzyme
  Percentage of the compound remaining in human liver microsome: 29.40%
[2]
  solubility at 24 h: 24.4 µg/mL (≈ 67.3 µM)
Stability in rat plasma; 0 minute
  Percentage of the compound remaining in plasma: 100.0%
Stability in rat plasma; 37° C., 15 minutes
  Percentage of the compound remaining in plasma: 0.0%
Stability in rat plasma; 37° C., 30 minutes
  Percentage of the compound remaining in plasma: 0.0%
Stability in rat plasma; 37° C., 60 minutes
  Percentage of the compound remaining in plasma: 0.0%
Stability in rat plasma; 37° C., 120 minutes
  Percentage of the compound remaining in plasma: 0.0%
[3]
  stability in plasma: high stability
[4]; with coenzyme
  Percentage of the compound remaining in dog liver microsome: 61.38%
[4]; without coenzyme
  Percentage of the compound remaining in dog liver microsome: 70.31%
[5]; with coenzyme
  Percentage of the compound remaining in mouse liver microsome: 9.85%
[5]; without coenzyme
  Percentage of the compound remaining in mouse liver microsome: 31.90%
[6]; with coenzyme
  Percentage of the compound remaining in rat liver microsome: 10.77%
[6]; without coenzyme
  Percentage of the compound remaining in rat liver microsome: 13.97%
[7]; 0 minute
  Percentage of the compound remaining in plasma: 100.0%
[7]; 37° C., 15 minutes
  Percentage of the compound remaining in plasma: 108.6%
[7]; 37° C., 30 minutes
  Percentage of the compound remaining in plasma: 103.3%
[7]; 37° C., 60 minutes
  Percentage of the compound remaining in plasma: 93.4%
[7]; 37° C., 120 minutes
  Percentage of the compound remaining in plasma: 71.9%

## CCC(C)C(C(=O)OC)N(C)C(=O)OCOc1ccc([N+](=O)[O-])c2cccnc12 (centres unmarked) [Compound 56, methyl 3-methyl-2-(methyl(((5-nitroquinolin-8-yloxy)methoxy)formyl)amino)pentanoate]
[1]; with coenzyme
  Percentage of the compound remaining in human liver microsome: 0.12%
[1]; without coenzyme
  Percentage of the compound remaining in human liver microsome: 71.66%
[2]
  solubility at 24 h: 39.8 µg/mL (≈ 98.2 µM)
Stability in rat plasma; 0 minute
  Percentage of the compound remaining in plasma: 100.0%
Stability in rat plasma; 37° C., 15 minutes
  Percentage of the compound remaining in plasma: 2.8%
Stability in rat plasma; 37° C., 30 minutes
  Percentage of the compound remaining in plasma: 0.1%
Stability in rat plasma; 37° C., 60 minutes
  Percentage of the compound remaining in plasma: 0.0%
Stability in rat plasma; 37° C., 120 minutes
  Percentage of the compound remaining in plasma: 0.0%
[3]
  stability in plasma: high stability
[4]; with coenzyme
  Percentage of the compound remaining in dog liver microsome: 14.94%
[4]; without coenzyme
  Percentage of the compound remaining in dog liver microsome: 118.35%
[5]; with coenzyme
  Percentage of the compound remaining in mouse liver microsome: 0.44%
[5]; without coenzyme
  Percentage of the compound remaining in mouse liver microsome: 103.05%
[6]; with coenzyme
  Percentage of the compound remaining in rat liver microsome: 0.45%
[6]; without coenzyme
  Percentage of the compound remaining in rat liver microsome: 62.17%
[7]; 0 minute
  Percentage of the compound remaining in plasma: 100.0%
[7]; 37° C., 15 minutes
  Percentage of the compound remaining in plasma: 98.9%
[7]; 37° C., 30 minutes
  Percentage of the compound remaining in plasma: 98.2%
[7]; 37° C., 60 minutes
  Percentage of the compound remaining in plasma: 103.6%
[7]; 37° C., 120 minutes
  Percentage of the compound remaining in plasma: 93.2%

## COC(=O)CN(C)C(=O)Oc1ccc([N+](=O)[O-])c2cccnc12 [Compound 57, methyl 2-(methyl((5-nitroquinolin-8-yloxy)formyl)amino)acetate]
[1]; with coenzyme
  Percentage of the compound remaining in human liver microsome: 0.16%
[1]; without coenzyme
  Percentage of the compound remaining in human liver microsome: 0.15%
[2]
  solubility at 24 h: 138 µg/mL (≈ 432 µM)
Stability in rat plasma; 0 minute
  Percentage of the compound remaining in plasma: 100.0%
Stability in rat plasma; 37° C., 15 minutes
  Percentage of the compound remaining in plasma: 0.1%
Stability in rat plasma; 37° C., 30 minutes
  Percentage of the compound remaining in plasma: 0.0%
Stability in rat plasma; 37° C., 60 minutes
  Percentage of the compound remaining in plasma: 0.0%
Stability in rat plasma; 37° C., 120 minutes
  Percentage of the compound remaining in plasma: 0.0%
[3]
  stability in plasma: high stability
[4]; with coenzyme
  Percentage of the compound remaining in dog liver microsome: 0.03%
[4]; without coenzyme
  Percentage of the compound remaining in dog liver microsome: 75.50%
[5]; with coenzyme
  Percentage of the compound remaining in mouse liver microsome: 5.57%
[5]; without coenzyme
  Percentage of the compound remaining in mouse liver microsome: 76.69%
[6]; with coenzyme
  Percentage of the compound remaining in rat liver microsome: 23.06%
[6]; without coenzyme
  Percentage of the compound remaining in rat liver microsome: 44.33%
[7]; 0 minute
  Percentage of the compound remaining in plasma: 100.0%
[7]; 37° C., 15 minutes
  Percentage of the compound remaining in plasma: 99.8%
[7]; 37° C., 30 minutes
  Percentage of the compound remaining in plasma: 93.0%
[7]; 37° C., 60 minutes
  Percentage of the compound remaining in plasma: 76.2%
[7]; 37° C., 120 minutes
  Percentage of the compound remaining in plasma: 60.2%
